Test results: ChEMBL document CHEMBL4477196, “Rhodocomatulin-Type Anthraquinones from the Australian Marine Invertebrates Clathria hirsuta and Comatula rotalaria” (2016)

System: MCF7
Experiment: Growth inhibition of human MCF7 cells at 10 uM incubated for 72 hrs by SRB assay
Type: functional
Conditions: MCF7, 72 h, read-out: GI

With `CCCC(=O)c1c(O)cc(O)c2c1C(=O)c1cc(OC)cc(OC)c1C2=O` the inhibition of growth at 10 µM was 9%.
